For series [1], the target named is Histamine H1 receptor (Cavia porcellus) (UniProt P31389). The experiment in a line: In vitro antagonism of histamine-induced contraction of guinea pig ileum at 1x10E-7M. It counts as functional, tissue-based.
The next series has as its target D(2) dopamine receptor (Homo sapiens, UniProt P14416). The experiment in a line: Compound is evaluated for in vitro receptor binding affinity against Dopamine receptor D2. Set-up: species or system Cavia porcellus.
The test system of series [2] is Cavia porcellus. The series is described as follows: Compound is tested for protection by antihistamines against histamine-induced lethality in the guinea pig by oral administration with a pretreatment period of 1 h. It counts as functional.
The target of series [3] is T1, Muscarinic acetylcholine receptor M1 (Homo sapiens, UniProt P11229).
T1 sequence (P11229 whole entry): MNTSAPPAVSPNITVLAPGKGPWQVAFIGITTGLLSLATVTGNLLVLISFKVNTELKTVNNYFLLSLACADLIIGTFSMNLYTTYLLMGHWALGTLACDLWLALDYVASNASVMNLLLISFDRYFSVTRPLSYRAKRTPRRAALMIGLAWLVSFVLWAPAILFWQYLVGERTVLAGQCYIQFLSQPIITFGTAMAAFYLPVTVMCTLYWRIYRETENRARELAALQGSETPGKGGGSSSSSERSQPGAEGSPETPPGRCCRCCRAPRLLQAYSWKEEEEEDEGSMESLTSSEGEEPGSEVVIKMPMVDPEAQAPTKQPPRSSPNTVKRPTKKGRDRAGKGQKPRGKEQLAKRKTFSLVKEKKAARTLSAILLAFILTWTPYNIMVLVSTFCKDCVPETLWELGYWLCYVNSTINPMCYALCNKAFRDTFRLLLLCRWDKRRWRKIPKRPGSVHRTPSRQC
The experiment in a line: Compound is evaluated for in vitro receptor binding affinity against Muscarinic acetylcholine receptor M1. On the set-up: species or system Cavia porcellus.

Series [4] can be described thus: Potency relative to 7-[3-(4-Benzhydryloxy-piperidine-1-yl)-propyl]-1,3-dimethyl-3,7-dihydro-purine-2,6-dione; Relative potency = […]/[…].
In series [5] the target is T2, Adrenergic receptor alpha-1 (Homo sapiens, UniProt P35348+P25100+P35368).
T2 sequence (P35348 whole entry): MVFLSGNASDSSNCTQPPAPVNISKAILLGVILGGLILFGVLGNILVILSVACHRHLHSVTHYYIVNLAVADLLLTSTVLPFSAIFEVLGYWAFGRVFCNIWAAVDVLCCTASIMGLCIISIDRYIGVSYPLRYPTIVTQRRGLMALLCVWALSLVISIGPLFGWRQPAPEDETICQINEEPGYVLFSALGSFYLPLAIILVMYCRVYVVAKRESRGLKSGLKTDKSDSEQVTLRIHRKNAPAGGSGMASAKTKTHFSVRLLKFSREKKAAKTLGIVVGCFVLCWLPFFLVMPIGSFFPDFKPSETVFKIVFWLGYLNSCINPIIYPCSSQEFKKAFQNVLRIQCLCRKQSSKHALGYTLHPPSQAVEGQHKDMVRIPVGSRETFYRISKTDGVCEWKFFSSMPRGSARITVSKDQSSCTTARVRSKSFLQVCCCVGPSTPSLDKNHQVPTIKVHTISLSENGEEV
T2 sequence (P25100 whole entry): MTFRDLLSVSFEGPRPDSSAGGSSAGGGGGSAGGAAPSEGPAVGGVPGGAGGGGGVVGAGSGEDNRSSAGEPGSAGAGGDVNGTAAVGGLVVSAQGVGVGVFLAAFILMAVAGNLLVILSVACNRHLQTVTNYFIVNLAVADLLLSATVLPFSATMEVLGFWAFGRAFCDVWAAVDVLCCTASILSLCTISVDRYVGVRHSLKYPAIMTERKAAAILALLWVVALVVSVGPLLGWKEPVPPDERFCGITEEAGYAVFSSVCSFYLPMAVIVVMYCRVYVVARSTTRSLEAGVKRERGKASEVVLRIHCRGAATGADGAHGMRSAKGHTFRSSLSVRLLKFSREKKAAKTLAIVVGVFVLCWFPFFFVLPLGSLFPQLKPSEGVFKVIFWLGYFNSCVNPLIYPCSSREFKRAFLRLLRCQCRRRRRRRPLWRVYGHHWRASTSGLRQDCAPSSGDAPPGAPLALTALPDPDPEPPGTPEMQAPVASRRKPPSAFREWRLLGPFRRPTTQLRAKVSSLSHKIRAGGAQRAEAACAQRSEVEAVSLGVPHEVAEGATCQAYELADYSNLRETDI
T2 sequence (P35368 whole entry): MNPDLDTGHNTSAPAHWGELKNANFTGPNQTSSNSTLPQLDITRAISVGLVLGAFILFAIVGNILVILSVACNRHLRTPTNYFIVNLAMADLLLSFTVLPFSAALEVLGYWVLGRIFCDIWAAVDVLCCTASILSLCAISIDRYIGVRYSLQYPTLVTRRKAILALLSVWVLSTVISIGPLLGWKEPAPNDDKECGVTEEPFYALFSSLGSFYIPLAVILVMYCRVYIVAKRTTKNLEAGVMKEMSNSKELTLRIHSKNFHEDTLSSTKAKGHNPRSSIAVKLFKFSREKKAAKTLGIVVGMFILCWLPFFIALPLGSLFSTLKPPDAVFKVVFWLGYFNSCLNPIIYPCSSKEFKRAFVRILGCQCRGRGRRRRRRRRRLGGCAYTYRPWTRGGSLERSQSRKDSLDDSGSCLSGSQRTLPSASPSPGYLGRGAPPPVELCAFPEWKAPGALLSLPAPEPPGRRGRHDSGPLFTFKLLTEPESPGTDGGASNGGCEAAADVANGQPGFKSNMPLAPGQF
The experiment in a line: Compound is evaluated for in vitro receptor binding affinity against Alpha-1 adrenergic receptor. Type of series: protein assay, Cavia porcellus.

A short description of series [6]: pA2 value is determined compared to standard H1-antagonists. It counts as ADME.
For series [7], the target named is T3, Muscarinic acetylcholine receptor M2 (Homo sapiens, UniProt P08172).
T3 sequence (P08172 whole entry): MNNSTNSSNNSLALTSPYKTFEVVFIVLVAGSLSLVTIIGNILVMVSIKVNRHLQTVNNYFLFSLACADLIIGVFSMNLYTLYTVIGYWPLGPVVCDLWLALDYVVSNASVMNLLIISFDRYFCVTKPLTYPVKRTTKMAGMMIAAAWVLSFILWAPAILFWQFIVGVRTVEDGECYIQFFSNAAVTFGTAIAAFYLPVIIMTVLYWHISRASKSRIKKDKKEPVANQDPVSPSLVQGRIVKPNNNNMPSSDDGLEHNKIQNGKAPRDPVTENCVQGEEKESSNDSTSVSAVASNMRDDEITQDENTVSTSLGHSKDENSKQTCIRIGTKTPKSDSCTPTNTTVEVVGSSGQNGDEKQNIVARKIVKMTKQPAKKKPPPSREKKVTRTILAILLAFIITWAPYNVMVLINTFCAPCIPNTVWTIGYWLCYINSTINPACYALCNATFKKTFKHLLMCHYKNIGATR
The experiment in a line: Compound is evaluated for in vitro receptor binding affinity against Muscarinic acetylcholine receptor M2. On the set-up: species or system Cavia porcellus.

The target of series [8] is Histamine H1 receptor (Cavia porcellus) (UniProt P31389). The series is described as follows: Compound is evaluated for the inhibition of H1-receptor antagonists of histamine-induced skin wheal formation in the guinea pig with a pretreatment interval prior to histamine challenge at 1 h. It counts as functional.
A short description of series [9]: Dissociation constant (KD) of the compound.
A further series deals with Histamine H1 receptor (Cavia porcellus, UniProt P31389). The series is described as follows: Compound is evaluated for in vitro receptor binding affinity against H1 receptor.
Chain of Histamine H1 receptor (P31389 whole entry): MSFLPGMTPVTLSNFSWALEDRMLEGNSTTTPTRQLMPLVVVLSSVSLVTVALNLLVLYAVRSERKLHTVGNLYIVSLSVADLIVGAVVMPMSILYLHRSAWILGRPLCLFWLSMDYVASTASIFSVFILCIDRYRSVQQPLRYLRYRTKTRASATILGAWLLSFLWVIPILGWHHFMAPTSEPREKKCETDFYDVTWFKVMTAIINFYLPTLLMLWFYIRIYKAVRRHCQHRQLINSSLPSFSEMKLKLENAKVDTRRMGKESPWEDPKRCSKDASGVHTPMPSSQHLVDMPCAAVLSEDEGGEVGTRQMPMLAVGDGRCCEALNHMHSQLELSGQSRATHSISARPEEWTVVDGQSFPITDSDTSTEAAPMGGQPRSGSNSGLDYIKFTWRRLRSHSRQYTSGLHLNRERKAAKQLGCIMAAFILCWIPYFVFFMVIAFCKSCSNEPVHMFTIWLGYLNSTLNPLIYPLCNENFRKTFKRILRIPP
Series [10] in a line: Partition coefficient (logP). Type of series: physicochemical. Conditions: octanol/water.
The target in series [11] is T4, 5-hydroxytryptamine receptor 1A (Homo sapiens, UniProt P08908).
T4 sequence (P08908 whole entry): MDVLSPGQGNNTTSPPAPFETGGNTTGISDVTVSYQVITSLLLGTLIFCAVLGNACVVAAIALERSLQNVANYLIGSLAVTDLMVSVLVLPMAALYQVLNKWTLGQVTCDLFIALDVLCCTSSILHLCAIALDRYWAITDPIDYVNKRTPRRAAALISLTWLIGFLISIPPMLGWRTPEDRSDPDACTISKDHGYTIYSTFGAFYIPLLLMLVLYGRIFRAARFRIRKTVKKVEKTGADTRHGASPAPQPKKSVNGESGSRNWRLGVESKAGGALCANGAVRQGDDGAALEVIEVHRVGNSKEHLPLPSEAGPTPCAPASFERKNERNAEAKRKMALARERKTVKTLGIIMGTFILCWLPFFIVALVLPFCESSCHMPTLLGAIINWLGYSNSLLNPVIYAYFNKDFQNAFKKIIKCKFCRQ
The series is described as follows: Compound is evaluated for in vitro receptor binding affinity against 5-hydroxytryptamine 1A receptor. On the set-up: species or system Cavia porcellus.

The test system of series [12] is Cavia porcellus. The experiment in a line: Compound is tested for protection by antihistamines against histamine-induced lethality in the guinea pig by oral administration with pretreatment period of 18 h. Type of series: functional.
The target in series [13] is Histamine H1 receptor (Cavia porcellus) (UniProt P31389). The experiment in a line: Compound is evaluated for the inhibition of H1-receptor antagonists of histamine-induced skin wheal formation in the guinea pig with a pretreatment interval prior to histamine challenge at 18 h. It counts as functional.

From ChEMBL document CHEMBL1128457, “New antihistamines: substituted piperazine and piperidine derivatives as novel H1-antagonists” (J Med Chem, 1995) come the findings set out here.

Chain of Histamine H1 receptor (Cavia porcellus) (P31389 whole entry): as the sequence (P31389 whole entry) above
Chain of D(2) dopamine receptor (P14416 whole entry): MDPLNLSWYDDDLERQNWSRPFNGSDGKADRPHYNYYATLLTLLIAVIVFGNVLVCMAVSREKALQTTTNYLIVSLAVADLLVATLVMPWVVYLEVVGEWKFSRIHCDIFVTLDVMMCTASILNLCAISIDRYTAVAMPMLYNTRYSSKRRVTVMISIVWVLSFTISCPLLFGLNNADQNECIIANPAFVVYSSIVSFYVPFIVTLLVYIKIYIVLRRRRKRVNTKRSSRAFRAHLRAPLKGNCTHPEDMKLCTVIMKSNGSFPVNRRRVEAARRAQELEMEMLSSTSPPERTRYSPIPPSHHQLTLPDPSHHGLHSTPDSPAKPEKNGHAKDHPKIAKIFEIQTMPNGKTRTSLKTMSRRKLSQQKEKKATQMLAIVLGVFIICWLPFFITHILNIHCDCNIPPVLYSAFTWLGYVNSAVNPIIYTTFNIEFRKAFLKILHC

Usually inhibition stands for the change of the read-out against control, counted positive when it falls. In [1], `O=C1C2C3C=CC(C4CC34)C2C(=O)N1CCCCN1CCN(C(c2ccccc2)c2ccccc2)CC1` (centres undefined) yielded an inhibition of 50%.

On to `O=C1C2C3C=CC(C4CC34)C2C(=O)N1CCCN1CCN(C(c2ccc(F)cc2)c2ccc(F)cc2)CC1` (centres undefined), for which the inhibition in series [1] worked out at 29%.

As for `Cn1c(=O)c2c(ncn2CCCN2CCN(c3ccc(Cl)nn3)CC2)n(C)c1=O`, the inhibition in series [1] came to 50%.

On to `O=C1C2C3C=CC(C4CC34)C2C(=O)N1CCCCN1CCN(C(c2ccc(F)cc2)c2ccc(F)cc2)CC1` (centres undefined), for which, in [1], the inhibition is 98%.

Molecule `Cn1c(=O)c2c(ncn2CCCN2CCN(C(c3ccccc3)c3ccc(Cl)cc3)CC2)n(C)c1=O` (centres undefined) yielded an inhibition in series [1] of 29%.

Turning to `O=C1C2C3C=CC(C4CC34)C2C(=O)N1CCCN1CCN(C(c2ccccc2)c2ccc(Cl)cc2)CC1` (centres undefined), the inhibition in series [1] was less than 10%.

As for `O=C1CC2(CCCC2)CC(=O)N1CCCCN1CCN(C(c2ccc(F)cc2)c2ccc(F)cc2)CC1`, in [1], the inhibition was 77%.

For `Cn1c(=O)c2c(ncn2CCCCN2CCN(C(c3ccc(Cl)cc3)c3ccc(Cl)cc3)CC2)n(C)c1=O`, in [1], the inhibition was determined as 14%.

Broadly, the % inhibition is the relative decrease from the control value, in per cent. Read a low % inhibition as a weak effect. In general, ED50 refers to the dose that gives a 50% effect, or the effect in half of the subjects. What is called IC50 is the concentration at which inhibition is half-maximal. High values mean weaker potency in that assay, low ones greater potency in that assay. By pA2 is commonly meant the negative logarithm of the molar antagonist concentration that doubles the agonist concentration needed for the same response. A word on the Kd: it is the constant that tells how readily two partners part at equilibrium. A high value points to lower affinity. As a reminder, the logP is a log measure of how a compound divides between an organic and an aqueous phase. As to `Cl.Cl.Cn1c(=O)c2c(ncn2CCCN2CCN(C(c3ccc(F)cc3)c3ccc(F)cc3)CC2)n(C)c1=O`, the % inhibition stood at 43% at D(2) dopamine receptor and 38% in [11]. In addition, the 50% effective dose (ED50) with Cavia porcellus [2] is 1.96 mg/kg; in series [8], 0.45 mg/kg. For the same molecule, the IC50 in series [3] is 0.67 µM; in series [5] it was 0.059 µM; in series [7], greater than 10 µM; at Histamine H1 receptor, 0.22 µM. The molecule also came in with a Relative potency in series [4] of 0.0012. Moreover, the pA2 in series [6] was found to be 8.2. The same molecule showed an equilibrium dissociation constant (Kd) in [9] of 0.0066 µM. This molecule also returned a log partition coefficient (logP) in series [10] of 1.81. In addition, the inhibition in series [1] was found to be 92%.

In series [9], `CC(C)(C)c1ccc(C(O)CCCN2CCC(C(O)(c3ccccc3)c3ccccc3)CC2)cc1` (centres undefined) [TERFENADINE] returned a Kd of 0.033 µM.

In [1], `O=C1C2C3C=CC(C4CC34)C2C(=O)N1CCCCN1CCN(c2ccc(Cl)nn2)CC1` (centres undefined) came in with an inhibition of 76%.

As for `CC(C)(C)c1ccc(C(=O)CCCN2CCC(OC(c3ccccc3)c3ccccc3)CC2)cc1` [EBASTINE], the ED50 amounted to 0.45 mg/kg with Cavia porcellus [2] and 1.71 mg/kg in the series on Cavia porcellus [12]. Further, the pA2 in series [6] stood at 7.4. Also, the Kd in [9] is 0.004 µM. Further, in series [10], the logP was 2.74.

For `Cn1c(=O)c2c(ncn2CCCN2CCN(c3cncc(Cl)n3)CC2)n(C)c1=O`, the inhibition in series [1] is 29%.

As to `CN(C)CCC(c1ccc(Cl)cc1)c1ccccn1` (centres undefined) [CHLORPHENIRAMINE], the pA2 in series [6] was 8.4. Further, the ED50 is 0.79 mg/kg in [8] and 1.07 mg/kg in [13]. In series [9], binding was put at a Kd of 0.0037 µM.

In turn, `O=C1C2C3C=CC(C4CC34)C2C(=O)N1CCN1CCN(C(c2ccccc2)c2ccccc2)CC1` (centres undefined) displayed an inhibition in series [1] of less than 10%.

`COc1ccc(CCN2CCC(Nc3nc4ccccc4n3Cc3ccc(F)cc3)CC2)cc1` [ASTEMIZOLE]: the pA2 in series [6] was 8.3. The ED50 in series [8] amounted to 0.53 mg/kg. Moreover, in [9], the Kd turned out to be 0.0055 µM.

The molecule `Cn1c(=O)c2c(ncn2CCCN2CCN(c3nccnc3Cl)CC2)n(C)c1=O` returned an inhibition in series [1] of less than 10%.

As for `O=C1C2C3C=CC(C4CC34)C2C(=O)N1CCN1CCN(C(c2ccc(F)cc2)c2ccc(F)cc2)CC1` (centres undefined), the inhibition in series [1] is less than 10%.
